From PubChem BioAssay AID1745844 (Carcinogenic Potency Database (CPDB), 2022)
“And” between values parts separate entries of the source, which are not always exact repeats. Equal values may be shown once.

Test system: rodent lifetime carcinogenesis bioassay, tumor incidence TD50
Assay: carcinogenic potency in animals, long-term in vivo studies, CPDB compilation (AID 1745844)
Settings: rat, inhaled

With `C=CCl` the TD50 (strain Sprague-Dawley, males, site: extrahepatic tissue, lesion: angiosarcoma, dosed 25 weeks, study length 115 weeks) was 468 mg/kg/day, the TD50 (strain Sprague-Dawley, males, site: extrahepatic tissue, lesion: angiosarcoma, dosed 52 weeks, study length 123 weeks) was 63 mg/kg/day and the TD50 (strain Sprague-Dawley, males, site: extrahepatic tissue, lesion: angiosarcoma, dosed 52 weeks, study length 131 weeks) was 14900 mg/kg/day. It also gave a TD50 (strain Sprague-Dawley, males, site: extrahepatic tissue, lesion: angiosarcoma, dosed 52 weeks, study length 139 weeks) of 11.7 mg/kg/day, a TD50 (strain Sprague-Dawley, males, site: kidney, lesion: nephroblastoma, dosed 25 weeks, study length 139 weeks) of 1940 mg/kg/day and a TD50 (strain Sprague-Dawley, males, site: kidney, lesion: nephroblastoma, dosed 52 weeks, study length 123 weeks) of 37.8 mg/kg/day. It also gave a TD50 (strain Sprague-Dawley, males, site: kidney, lesion: nephroblastoma, dosed 52 weeks, study length 131 weeks) of 2960 mg/kg/day, a TD50 (strain Sprague-Dawley, males, site: kidney, lesion: nephroblastoma, dosed 52 weeks, study length 139 weeks) of 28.9 mg/kg/day and a TD50 (strain Sprague-Dawley, males, site: liver, lesion: angioma, dosed 25 weeks, study length 115 weeks) of 580 mg/kg/day. The TD50 (strain Sprague-Dawley, males, site: liver, lesion: angioma, dosed 25 weeks, study length 139 weeks) was 1030 mg/kg/day, the TD50 (strain Sprague-Dawley, males, site: liver, lesion: angioma, dosed 52 weeks, study length 123 weeks) was 106 mg/kg/day and 54.3 mg/kg/day and the TD50 (strain Sprague-Dawley, males, site: liver, lesion: angiosarcoma, dosed 25 weeks, study length 115 weeks) was 871 mg/kg/day. For the same compound, the TD50 (strain Sprague-Dawley, males, site: liver, lesion: angiosarcoma, dosed 52 weeks, study length 123 weeks) was 76.7 mg/kg/day and 62.4 mg/kg/day, the TD50 (strain Sprague-Dawley, males, site: liver, lesion: angiosarcoma, dosed 52 weeks, study length 130 weeks) was 90 mg/kg/day and the TD50 (strain Sprague-Dawley, males, site: liver, lesion: angiosarcoma, dosed 52 weeks, study length 131 weeks) was 875 mg/kg/day. For the same compound, the TD50 (strain Sprague-Dawley, males, site: liver, lesion: angiosarcoma, dosed 52 weeks, study length 139 weeks) was 75.8 mg/kg/day, the TD50 (strain Sprague-Dawley, males, site: liver, lesion: hepatocellular carcinoma, dosed 52 weeks, study length 130 weeks) was 40.8 mg/kg/day and the TD50 (strain Sprague-Dawley, males, site: liver, lesion: hepatoma, dosed 52 weeks, study length 123 weeks) was 152 mg/kg/day. For the same compound, the TD50 (strain Sprague-Dawley, males, site: liver, lesion: hepatoma, dosed 52 weeks, study length 131 weeks) was 13400 mg/kg/day, the TD50 (strain Sprague-Dawley, males, site: liver, lesion: several types, types named in the paper, dosed 52 weeks, study length 130 weeks) was 294 mg/kg/day and the TD50 (strain Sprague-Dawley, males, site: pituitary gland, lesion: one or several types, types not named, dosed 52 weeks, study length 130 weeks) was 138 mg/kg/day. It also gave a TD50 (strain Wistar, females, site: Zymbal's gland, lesion: squamous-cell carcinoma, dosed 52 weeks, study length 52 weeks) of 857 mg/kg/day, a TD50 (strain Wistar, females, site: liver, lesion: angiosarcoma, dosed 52 weeks, study length 52 weeks) of 209 mg/kg/day and a TD50 (strain Wistar, females, site: liver, lesion: hepatocellular carcinoma, dosed 52 weeks, study length 52 weeks) of 1810 mg/kg/day. For the same compound, the TD50 (strain Wistar, females, site: liver, lesion: neoplastic nodule, dosed 52 weeks, study length 52 weeks) was 1810 mg/kg/day, the TD50 (strain Wistar, females, site: lung, lesion: papillary adenoma, dosed 52 weeks, study length 52 weeks) was 1810 mg/kg/day and the TD50 (strain Wistar, females, site: nasal cavity, lesion: olfactory epithelial carcinoma, dosed 52 weeks, study length 52 weeks) was 276 mg/kg/day. For the same compound, the TD50 (strain Wistar, males, site: Zymbal's gland, lesion: carcinoma, dosed 52 weeks, study length 125 weeks) was 3540 mg/kg/day, the TD50 (strain Wistar, males, site: Zymbal's gland, lesion: squamous-cell carcinoma, dosed 52 weeks, study length 52 weeks) was 330 mg/kg/day and the TD50 (strain Wistar, males, site: any site (literature study), lesion: several types, types named in the paper, dosed 52 weeks, study length 78 weeks) was 5.44 mg/kg/day. It also gave a TD50 (strain Wistar, males, site: any site (literature study), lesion: several types, types named in the paper, dosed 52 weeks, study length 125 weeks) of 1130 mg/kg/day, a TD50 (strain Wistar, males, site: brain, lesion: neuroblastoma, dosed 52 weeks, study length 125 weeks) of 4140 mg/kg/day and a TD50 (strain Wistar, males, site: brain, lesion: one or several types, types not named, dosed 52 weeks, study length 78 weeks) of 5820 mg/kg/day. It also gave a TD50 (strain Wistar, males, site: extrahepatic tissue, lesion: angioma, dosed 52 weeks, study length 125 weeks) of 72700 mg/kg/day, a TD50 (strain Wistar, males, site: extrahepatic tissue, lesion: angioma, dosed 52 weeks, study length 127 weeks) of 0.37 mg/kg/day and a TD50 (strain Wistar, males, site: extrahepatic tissue, lesion: angiosarcoma, dosed 52 weeks, study length 125 weeks) of 8490 mg/kg/day. For the same compound, the TD50 (strain Wistar, males, site: extrahepatic tissue, lesion: angiosarcoma, dosed 52 weeks, study length 127 weeks) was 1.05 mg/kg/day, the TD50 (strain Wistar, males, site: kidney, lesion: nephroblastoma, dosed 52 weeks, study length 125 weeks) was 4510 mg/kg/day and the TD50 (strain Wistar, males, site: liver, lesion: angioma, dosed 52 weeks, study length 125 weeks) was 3620 mg/kg/day. It also gave a TD50 (strain Wistar, males, site: liver, lesion: angioma, dosed 52 weeks, study length 127 weeks) of 0.654 mg/kg/day, a TD50 (strain Wistar, males, site: liver, lesion: angiosarcoma, dosed 52 weeks, study length 52 weeks) of 330 mg/kg/day and a TD50 (strain Wistar, males, site: liver, lesion: angiosarcoma, dosed 52 weeks, study length 78 weeks) of 10.2 mg/kg/day. It also gave a TD50 (strain Wistar, males, site: liver, lesion: angiosarcoma, dosed 52 weeks, study length 125 weeks) of 518 mg/kg/day, a TD50 (strain Wistar, males, site: liver, lesion: hepatocellular carcinoma, dosed 52 weeks, study length 52 weeks) of 1140 mg/kg/day and a TD50 (strain Wistar, males, site: liver, lesion: hepatoma, dosed 52 weeks, study length 125 weeks) of 4860 mg/kg/day. For the same compound, the TD50 (strain Wistar, males, site: liver, lesion: hepatoma, dosed 52 weeks, study length 127 weeks) was 0.728 mg/kg/day, the TD50 (strain Wistar, males, site: lung, lesion: angiosarcoma, dosed 52 weeks, study length 78 weeks) was 193 mg/kg/day and the TD50 (strain Wistar, males, site: lung, lesion: one or several types, types not named, dosed 52 weeks, study length 78 weeks) was 867 mg/kg/day. For the same compound, the TD50 (strain Wistar, males, site: nasal cavity, lesion: olfactory epithelial carcinoma, dosed 52 weeks, study length 52 weeks) was 533 mg/kg/day, the carcinogen call (strain Wistar, males, site: nose, lesion: one or several types, types not named, dosed 52 weeks, study length 78 weeks) was “positive” and the TD50 (strain Wistar, males, site: skin, lesion: one or several types, types not named, dosed 52 weeks, study length 78 weeks) was 5820 mg/kg/day. For the same compound, the carcinogen call (strain Wistar, males, site: testis, lesion: one or several types, types not named, dosed 52 weeks, study length 78 weeks) was “positive”.
